Test results: patent US5623080A, “Fluorone and pyronin Y derivatives” (Spectra Group Limited, Inc., priority 1995, dated 1997)

Key:
[1] = double bond conversion (C=C% Conversion) by FTIR
Protocol: (§1) To a resin formulation consisting of 15 parts urethane diacrylate, 15 parts DPHPA, 20 parts TPGDA and 40 parts TMPTA was added DIDMA, initiator and (4-octyloxyphenyl)phenyliodonium hexafluoroantimonate (OPPI). The samples were coated to a thickness of 15 microns and exposed to a 75 W tungsten halogen dental lamp (focused through an optical fiber) at a distance of 0.75 inch at which the Light intensity was about 0.40 W/cm^2. The molar ratios are indicative of the amounts of fluorone to onium salt to amine coinitiator. The double bond conversion was determined by FTIR spectroscopy. The pencil hardness of a given test sample is measured by holding a pencil at a 45° angle to the sample and drawing across it towards the person testing it. Using the pencils in an order from softest to hardest, the first pencil that scratches the surface is assigned as the pencil hardness of the sample. The pencil hardness scale is as follows from softest to hardest: 4B, 3B, 2B, B, HB, H, 2H, 3H, 4H, 6H. For instance, if a 2H pencil is the first pencil to scratch the surface then the pencil hardness is 2H.

[2] = double bond conversion (C=C% Conversion) by FTIR; settings: DIDMA
Protocol: as §1
The foregoing study was repeated using 100% butanediol diacrylate, and 100% polyethylene glycol diacrylate (MW=400)(PEGA 400).

Structure (SMILES): CCCCOc1ccc2cc3cc(I)c(=O)c(I)c-3oc2c1 [DIBF, 5,7-diiodo-3-butoxy-6-fluorone]
- C=C% Conversion ([1]; 0.05 wt %, (1:0:60), DIDMA, 30 sec): 37%
- C=C% Conversion ([1]; 0.05 wt %, (1:1:60), DIDMA, 30 sec): 37%
- C=C% Conversion ([1]; 0.05 wt %, (1:2:0), DIDMA, 30 sec): 5%
- C=C% Conversion ([1]; 0.05 wt %, (1:2:3), DIDMA, 30 sec): 40%
- C=C% Conversion ([1]; 0.05 wt %, (1:2:3), DIDMA, 60 sec): 43%
- C=C% Conversion ([1]; 0.05 wt %, (1:2:3), NPG, 30 sec): 40%
- C=C% Conversion ([1]; 0.05 wt %, (1:2:5), DIDMA, 30 sec): 40%
- C=C% Conversion ([1]; 0.05 wt %, (1:2:60), DIDMA, 30 sec): 43%
- C=C% Conversion ([1]; 0.10 wt %, (1:2:0), DIDMA, 30 sec): 18%
- C=C% Conversion ([1]; 0.10 wt %, (1:2:3), DIDMA, 30 sec): 45%
- C=C% Conversion ([1]; 0.10 wt %, (1:2:3), DIDMA, 60 sec): 47%
- C=C% Conversion ([1]; 0.15 wt %, (1:2:0), DIDMA, 30 sec): 19%
- C=C% Conversion ([1]; 0.15 wt %, (1:2:3), DIDMA, 30 sec): 50%
- C=C% Conversion ([1]; 0.15 wt %, (1:2:3), DIDMA, 60 sec): 54%
- C=C% Conversion ([1]; 0.20 wt %, (1:2:3), DIDMA, 30 sec): 51%
- C=C% Conversion ([1]; 0.25 wt %, (1:2:3), DIDMA, 30 sec): 50%
- C=C% Conversion ([2]; 0.05 wt %, (1:0:60), 30 sec): 30%
- C=C% Conversion ([2]; 0.05 wt %, (1:2:3), 30 sec): 49%
- C=C% Conversion ([2]; 0.10 wt %, (1:2:3), 30 sec): 56%
- C=C% Conversion ([2]; 0.10 wt %, (1:2:3), 60 sec): 56%
- C=C% Conversion ([2]; 0.15 wt %, (1:3:3), 30 sec): 58%
